According to patent US20220152159A1, “PHARMACEUTICAL COMPOSITION, METHODS FOR TREATING AND USES THEREOF” (Boehringer Ingelheim International GmbH, priority 2010, published 2022):

What was measured:
[1] = tested on: streptozotocin-pretreated male Sprague-Dawley rats (experimental diabetes, type 1 diabetic condition); assay: Example 1a: blood glucose over 4 h after SGLT2 inhibitor, insulin glargine or combination; assay type: in vivo, rat; conditions: four hours after administration, Cpd. A 10 mg/kg oral, insulin glargine 1.5 IU/animal s.c.; for reduction of blood glucose versus control: combination at the same doses, 3-h fasted STZ rats; for statistical difference of blood glucose versus control: combination same doses
Experimental: All experimental protocols concerning the use of laboratory animals were reviewed by a federal Ethics Committee and approved by governmental authorities. Two weeks before the study starts, the rats were pretreated with a single dose of 60 mg/kg i.p. of streptozotocin to induced experimental diabetes, resembling a type 1 diabetic condition. During the study blood glucose was followed over 4 h in male, 3-h fasted Sprague-Dawley rats (Crl:CD) with an age of 8-9 weeks at the start of the study. A pre-dose blood sample was obtained by tail bleed for randomization and blood glucose was measured with a glucometer 30, 60, 90 min and 2, 3, 4 hours after administration of the insulin and/or the SGLT2 inhibitor. At time point 0 min, the animals (n=4-6 per group) were injected either with insulin glargine or isotonic NaCl subcutaneously. Simultaneously all animals received oral administrations of either vehicle alone (0.5% aqueous hydroxyethylcellulose) or this vehicle containing the SGLT2 inhibitor. The data are presented as mean±S.E.M. Statistical comparison was conducted by repeated measures two-way ANOVA (analysis of variance) followed by Bonferroni post tests for group-wise comparisons. A p value <0.05 was considered to show a statistically significant difference. The term “Cpd. A” denotes the SGLT2 inhibitor compound (1.9) at a dose of 10 mg/kg. Insulin glargine was administered at a dose of 1.5 IU/animal. The term “Cpd. A+Insulin glargine” denotes the combination of the SGLT2 inhibitor compound (1.9) and insulin glargine at the same doses. P values versus control are indicated by asterisks and p values of the monotherapies versus the combination are indicated by crosses (one symbol, p<0.05; two symbols, p<0.01; three symbols, p<0.001). Four hours after administration, the SGLT2 inhibitor had reduced blood glucose by 19% versus control, and insulin glargine by 27%.

[2] = tested on: streptozotocin-pretreated male Sprague-Dawley rats (experimental diabetes, type 1 diabetic condition); assay: Example 2a: blood glucose over 4 h, SGLT2 inhibitor plus low-dose insulin glargine versus high-dose insulin glargine; assay type: in vivo, rat; conditions: for reduction of blood glucose versus control: four hours after administration; for statistical difference of blood glucose versus control: four hours
Experimental: All experimental protocols concerning the use of laboratory animals were reviewed by a federal Ethics Committee and approved by governmental authorities. Two weeks before the study starts, the rats were pretreated with a single dose of 60 mg/kg i.p. of streptozotocin to induced experimental diabetes, resembling a type 1 diabetic condition. During the study blood glucose was followed over 4 h in male, 3-h fasted Sprague-Dawley rats (Crl:CD) with an age of 8-9 weeks at the start of the study. A pre-dose blood sample was obtained by tail bleed for randomization and blood glucose was measured with a glucometer 30, 60, 90 min and 2, 3, 4 h after administration of the insulin alone or together with the SGLT2 inhibitor. At time point 0 min, the animals (n=4-6 per group) were injected either with insulin glargine or isotonic NaCl subcutaneously. Simultaneously all animals received oral administrations of either vehicle alone (0.5% aqueous hydroxyethylcellulose) or this vehicle containing the SGLT2 inhibitor. The data are presented as mean±S.E.M. Statistical comparison was conducted by repeated measures two-way ANOVA followed by Bonferroni post tests for group-wise comparisons. A p value <0.05 was considered to show a statistically significant difference. Insulin glargine was administered at a dose of 1.5 μl/animal (low-dose) or 6 μl/animal (high-dose). The term “Cpd. A+low-dose insulin glargine” denotes the combination of the SGLT2 inhibitor at a dose of 10 mg/kg and insulin glargine at a dose of 1.5 μl/animal. P values versus control are indicated by asterisks and p values of the low-dose insulin glargine versus the combination or the high-dose insulin glargine are indicated by crosses (one symbol, p<0.05; two symbols, p<0.01; three symbols, p<0.001). […] The combination had decreased blood glucose by 53%, which was in the range of the high-dose insulin glargine with a decrease of 47%.

[3] = tested on: streptozotocin-pretreated male Sprague-Dawley rats (experimental diabetes, type 1 diabetic condition); assay: Example 1b: blood glucose over 6 h after SGLT2 inhibitor, insulin glargine or combination; assay type: in vivo, rat; conditions: six hours after administration, Cpd. A 10 mg/kg oral, insulin glargine 1.5 μl/animal s.c.; for reduction of blood glucose versus control: combination at the same doses, 3-h fasted STZ rats; for statistical difference of blood glucose versus control: combination same doses
Experimental: All experimental protocols concerning the use of laboratory animals were reviewed by a federal Ethics Committee and approved by governmental authorities. Two weeks before the study starts, the rats were pretreated with a single dose of 60 mg/kg i.p. of streptozotocin to induced experimental diabetes, resembling a type 1 diabetic condition. During the study blood glucose was followed over 6 h in male, 3-h fasted Sprague-Dawley rats (Crl:CD) with an age of 8-9 weeks at the start of the study. A pre-dose blood sample was obtained by tail bleed for randomization and blood glucose was measured with a glucometer 30, 60, 90 min and 2, 3, 4, 5, 6 hours after administration of insulin and/or the SGLT2 inhibitor. At time point 0 min, the animals (n=4-6 per group) were injected either with insulin glargine or isotonic NaCl subcutaneously. Simultaneously all animals received oral administrations of either vehicle alone (0.5% aqueous hydroxyethylcellulose) or this vehicle containing the SGLT2 inhibitor. The data are presented as mean±S.E.M. Statistical comparison was conducted by repeated measures two-way ANOVA followed by Bonferroni post tests for group-wise comparisons. A p value <0.05 was considered to show a statistically significant difference. The term “Cpd. A” denotes the SGLT2 inhibitor compound (1.9) at a dose of 10 mg/kg. Insulin glargine was administered at a dose of 1.5 μl/animal. The term “Cpd. A+Insulin glargine” denotes the combination of the SGLT2 inhibitor compound (1.9) and insulin glargine at the same doses. P values versus control are indicated by asterisks and p values of the monotherapies versus the combination are indicated by crosses (one symbol, p<0.05; two symbols, p<0.01; three symbols, p<0.001). Six hours after administration, the SGLT2 inhibitor had reduced blood glucose by 13% versus control, and insulin glargine by 22%.

[4] = tested on: streptozotocin-pretreated male Sprague-Dawley rats (experimental diabetes, type 1 diabetic condition); assay: Example 2b: blood glucose over 6 h, SGLT2 inhibitor plus low-dose insulin glargine versus high-dose insulin glargine; assay type: in vivo, rat; conditions: for reduction of blood glucose versus control: six hours after administration; for statistical difference of blood glucose versus control: six hours
Experimental: All experimental protocols concerning the use of laboratory animals were reviewed by a federal Ethics Committee and approved by governmental authorities. Two weeks before the study starts, the rats were pretreated with a single dose of 60 mg/kg i.p. of streptozotocin to induced experimental diabetes, resembling a type 1 diabetic condition. During the study blood glucose was followed over 6 h in male, 3-h fasted Sprague-Dawley rats (Crl:CD) with an age of 8-9 weeks at the start of the study. A pre-dose blood sample was obtained by tail bleed for randomization and blood glucose was measured with a glucometer 30, 60, 90 min and 2, 3, 4, 5, 6 h after administration of insulin alone or together with the SGLT2 inhibitor. At time point 0 min, the animals (n=4-6 per group) were injected either with insulin glargine or isotonic NaCl subcutaneously. Simultaneously all animals received oral administrations of either vehicle alone (0.5% aqueous hydroxyethylcellulose) or this vehicle containing the SGLT2 inhibitor. The data are presented as mean±S.E.M. Statistical comparison was conducted by repeated measures two-way ANOVA followed by Bonferroni post tests for group-wise comparisons. A p value <0.05 was considered to show a statistically significant difference. Insulin glargine was administered at a dose of 1.5 μl/animal (low-dose) or 6 IU/animal (high-dose). The term “Cpd. A+low-dose insulin glargine” denotes the combination of the SGLT2 inhibitor at a dose of 10 mg/kg and insulin glargine at a dose of 1.5 μl/animal. P values versus control are indicated by asterisks and p values of the low-dose insulin glargine versus the combination or the high-dose insulin glargine are indicated by crosses (one symbol, p<0.05; two symbols, p<0.01; three symbols, p<0.001). […] The combination had decreased blood glucose by 49%, which was in the range of the high-dose insulin glargine with a decrease of 44%.

the diabetic = conditions: metformin on its own; cited from earlier work
[5] = low-dose insulin glargine 1.5 μl/animal s.c., alone or with Cpd. A 10 mg/kg oral
[6] = low-dose insulin glargine 1.5 μl/animal, alone or with Cpd. A 10 mg/kg

Compound	reduction of blood glucose versus control [1] [%]	statistical difference of blood glucose versus control [1]	reduction of blood glucose versus control ([2]; high-dose insulin glargine 6 μl/animal s.c.) [%]	reduction of blood glucose versus control [2, 5] [%]	statistical difference of blood glucose versus control ([2]; high-dose insulin glargine 6 μl/animal)	statistical difference of blood glucose versus control [2, 6]	reduction of blood glucose versus control [3] [%]	statistical difference of blood glucose versus control [3]	reduction of blood glucose versus control ([4]; high-dose insulin glargine 6 IU/animal s.c.) [%]	reduction of blood glucose versus control [4, 5] [%]	statistical difference of blood glucose versus control ([4]; high-dose insulin glargine 6 IU/animal)	statistical difference of blood glucose versus control [4, 6]	average improvement in the HbA1c value (the diabetic)
Gly^A21, Arg^B31, Arg^B32 human insulin [insulin glargine]	27	did not show statistically significant differences versus control	47	27	significantly different from the control	without showing statistically significant difference	22	did not show statistically significant differences versus control	44	22	significantly different from the control	without showing statistically significant difference	–
CN(C)C(=N)N=C(N)N [metformin]	–	–	–	–	–	–	–	–	–	–	–	–	1.0-1.5%
OC[C@H]1O[C@@H](c2ccc(Cl)c(Cc3ccc(O[C@H]4CCOC4)cc3)c2)[C@H](O)[C@@H](O)[C@@H]1O [compound (1.9), 1-chloro-4-(β-D-glucopyranos-1-yl)-2-[4-((S)-tetrahydrofuran-3-yloxy)-benzyl]-benzene]	19	did not show statistically significant differences versus control	–	–	–	–	13	did not show statistically significant differences versus control	–	–	–	–	–
